Measured values as given in US20240158446A1, “CYCLIC COMPOUND HAVING SELECTIVE INHIBITORY ACTION ON KRAS OVER HRAS AND NRAS” (CHUGAI SEIYAKU KABUSHIKI KAISHA, priority 2021, published 2024).
Where two headings read alike, the source gives them in different places. *1 amine or outer side, *2 acyl side, *3 side chain or, on linkers, in order; H or OH if unused. Where a SMILES comes first, the peptide text is derived from it. Bridges are numbered along the chain shown (N, C = ends). [ ]: non-standard residue; d: D form. The star is where a group is joined. hPhe(3-Cl-4-CF3) = N[C@@H](CCc1ccc(C(F)(F)F)c(Cl)c1)C(=O)O; NPrPhe(4-CF3) = CCCN[C@@H](Cc1ccc(C(F)(F)F)cc1)C(=O)O; NMeGly(cPent) = CN[C@H](C(=O)O)C1CCCC1; NMeD = CN[C@@H](CC(=O)O)C(=O)O; NMeL = CN[C@@H](CC(C)C)C(=O)O; X12 = N#CCN(CC(=O)[*:2])[*:1]; Morpholide = C1CN(*)CCO1; Ac5c = NC1(C(=O)O)CCCC1; Sar = CNCC(=O)O

Legend:
[1] = biological target: GDP-bound HRAS wild-type protein (Homo sapiens, UniProt P01112); assay: Binding to HRAS by surface plasmon resonance (SPR), Single Cycle Kinetics; conditions: for HRAS/KRAS (ratio of KD value with respect to HRAS to KD value with respect to KRAS) / HRAS/KRAS (ratio of KD value for HRAS to KD value for KRAS): SPR, GDP-bound HRAS wild-type protein vs GDP-bound KRAS wild-type protein; for HRAS/KRAS (ratio of KD value with respect to GDP-bound HRAS wild-type protein to KD value with respect to KRAS): SPR KD ratio HRAS/KRAS, class symbols
Chain of GDP-bound HRAS wild-type protein (P01112 whole entry): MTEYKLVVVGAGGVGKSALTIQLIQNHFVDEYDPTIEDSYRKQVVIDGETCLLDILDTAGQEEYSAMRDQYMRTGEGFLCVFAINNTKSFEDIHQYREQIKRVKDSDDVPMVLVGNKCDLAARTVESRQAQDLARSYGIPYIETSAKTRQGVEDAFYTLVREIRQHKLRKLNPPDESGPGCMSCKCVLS

[2] = biological target: GDP-bound KRAS wild-type protein (Homo sapiens, UniProt P01116); assay: Binding to KRAS by surface plasmon resonance (SPR), Single Cycle Kinetics; conditions: GDP-bound KRAS wild-type protein, read-out: KRAS KD
Chain of GDP-bound KRAS wild-type protein (P01116 whole entry): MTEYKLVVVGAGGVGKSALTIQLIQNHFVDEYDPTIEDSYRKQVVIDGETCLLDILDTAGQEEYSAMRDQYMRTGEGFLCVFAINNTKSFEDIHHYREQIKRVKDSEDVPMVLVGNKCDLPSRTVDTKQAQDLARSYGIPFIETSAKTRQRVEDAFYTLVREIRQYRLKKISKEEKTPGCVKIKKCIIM

[3] = biological target: GDP-bound NRAS wild-type protein (Homo sapiens, UniProt P01111); assay: Binding to NRAS by surface plasmon resonance (SPR), Single Cycle Kinetics; conditions: for NRAS/KRAS (ratio of KD value with respect to NRAS to KD value with respect to KRAS) / NRAS/KRAS (ratio of KD value for NRAS to KD value for KRAS): SPR, GDP-bound NRAS wild-type protein vs GDP-bound KRAS wild-type protein; for NRAS/KRAS (ratio of KD value with respect to GDP-bound NRAS wild-type protein to KD value with respect to KRAS): SPR KD ratio NRAS/KRAS, class symbols
Chain of GDP-bound NRAS wild-type protein (P01111 whole entry): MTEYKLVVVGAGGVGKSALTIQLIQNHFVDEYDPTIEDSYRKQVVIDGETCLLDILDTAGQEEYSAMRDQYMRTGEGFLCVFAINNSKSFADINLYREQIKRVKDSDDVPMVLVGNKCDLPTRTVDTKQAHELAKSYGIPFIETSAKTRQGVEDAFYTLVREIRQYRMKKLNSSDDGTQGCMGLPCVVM

[4] = SPR Single Cycle Kinetics, 1:1 binding model

SMILES	HRAS/KRAS (ratio of KD value with respect to HRAS to KD value with respect to KRAS) [1]	Kd [2, 4]	NRAS/KRAS (ratio of KD value with respect to NRAS to KD value with respect to KRAS) [3]	HRAS/KRAS (ratio of KD value for HRAS to KD value for KRAS) [1]	NRAS/KRAS (ratio of KD value for NRAS to KD value for KRAS) [3]	Kd ([2]; SPR, Single Cycle Kinetics)	HRAS/KRAS (ratio of KD value with respect to GDP-bound HRAS wild-type protein to KD value with respect to KRAS) [1]	NRAS/KRAS (ratio of KD value with respect to GDP-bound NRAS wild-type protein to KD value with respect to KRAS) [3]
CC[C@H](C)[C@@H]1NC(=O)[C@H](CC(C)C)N(C)C(=O)C[C@@H](C(=O)N2CCOCC2)N(C)C(=O)[C@H](C2CCCC2)NC(=O)C2(CCCC2)NC(=O)[C@@H]2CCCN2C(=O)[C@H](CCc2cc(F)c(C(F)(F)F)c(F)c2)NC(=O)CN(C)C(=O)[C@H](Cc2ccc(C(F)(F)F)cc2)N2CCCC[C@@H](C2=O)N(C)C(=O)CN(C)C1=O [PP0540]	B (a compound having 3 or more and less than 10 is denoted as B)	17 nM	B (a compound having 3 or more and less than 10 is denoted as B)	–	–	–	–	–
CCCN1C(=O)CN(C)C(=O)CN(CC#N)C(=O)[C@H]([C@@H](C)CC)NC(=O)[C@H](CC(C)C)N(C)C(=O)C[C@@H](C(=O)N2CCOCC2)N(C)C(=O)[C@H](C2CCCC2)N(C)C(=O)C2(CCCC2)NC(=O)[C@@H]2CCCN2C(=O)[C@H](CCc2ccc(C(F)(F)F)c(Cl)c2)NC(=O)CN(C)C(=O)[C@@H]1Cc1ccc(C(F)(F)F)cc1 [PP0254] ([NMeL]I[X12][Sar][NPrPhe(4-CF3)][Sar][hPhe(3-Cl-4-CF3)]P[Ac5c][NMeGly(cPent)][NMeD]-Morpholide; lactam N-11)	–	0.16 nM	–	C (A compound having a KD ratio of 0.1 or more and less than 3 is denoted as C)	B (a compound having 3 or more and less than 10 is denoted as B)	–	–	–
CC[C@H](C)[C@@H]1NC(=O)[C@H](CC)N(C)C(=O)C[C@@H](C(=O)N(C)C)N(CC)C(=O)[C@H](C2CCCC2)N(C)C(=O)C2(CCC2)NC(=O)[C@@H]2CCCN2C(=O)[C@H](CCc2cc(F)c(C(F)(F)F)c(F)c2)NC(=O)CN(C)C(=O)[C@H](Cc2ccc(C(F)(F)F)cc2)N2CC/C=C\C[C@@H](C2=O)N(C)C(=O)CN(C)C1=O [PP1106]	–	–	–	A (a compound having 10 or more and less than 20 is denoted as A)	A (a compound having 10 or more and less than 20 is denoted as A)	0.81 nM	–	–
CC[C@H](C)[C@@H]1NC(=O)[C@H](CC(C)C)N(C)C(=O)C[C@@H](C(=O)N2CCOCC2)N(C)C(=O)[C@H](C2CCCC2)N(C)C(=O)C2(CCCC2)NC(=O)[C@@H]2CCCN2C(=O)[C@H](CCc2cc(F)c(C(F)(F)F)c(F)c2)NC(=O)CN(C)C(=O)[C@H](Cc2ccc(C(F)(F)F)cc2)N2CCCC[C@@H](C2=O)N(C)C(=O)CN(CC)C1=O [PP0545]	B (a compound having 3 or more and less than 10 is denoted as B)	0.24 nM	B (a compound having 3 or more and less than 10 is denoted as B)	–	–	–	–	–
CCO[C@@H]1C[C@H]2C(=O)NC3(CCC3)C(=O)N(C)[C@@H](CC(C)(C)C)C(=O)N(C)[C@H](C(=O)N3CCCC3)CC(=O)N(C)[C@@H](CC)C(=O)N[C@@H]([C@@H](C)CC)C(=O)N(C)CC(=O)N(C)[C@H]3C/C=C\CCN(C3=O)[C@@H](CC3CCCCC3)C(=O)N(C)CC(=O)N[C@@H](CCc3cc(F)c(C(F)(F)F)c(F)c3)C(=O)N2C1 [PP2772]	–	0.43 nM	–	–	–	–	B (a compound having 3 or more and less than 10 is denoted as B)	B (a compound having 3 or more and less than 10 is denoted as B)
CCO[C@@H]1C[C@H]2C(=O)NC3(CC(C)(C)C3)C(=O)N(C)[C@@H](C3CCCC3)C(=O)N(C)[C@H](C(=O)N3CCCCC3)CC(=O)N(C)[C@H]3CCCCCc4ccc(cc4)C[C@@H](C(=O)N(C)CC(=O)N[C@@H](CCc4ccc(C(F)(F)F)c(OC)c4)C(=O)N2C1)N1CC/C=C\C[C@@H](C1=O)N(C)C(=O)CN(C)C(=O)[C@H]([C@@H](C)CC)NC3=O [PP3036, (1S,7S,11R,13S,19S,22S,26S,29S,35S,37Z)-19-cyclopentyl-11-ethoxy-7-[2-[3-methoxy-4-(trifluoromethyl)phenyl]ethyl]-3,3′,3′,18,21,25,31,34-octamethyl-29-[(1S)-1-methylpropyl]-22-(piperidine-1-carbonyl)spiro[3,6,9,15,18,21,25,28,31,34,41-undecazapentacyclo[24.15.10.2^43,46.1^35,41.0^9,13]tetrapentaconta-37,43(53),44,46(52)-tetraene-16,1′-cyclobutane]-2,5,8,14,17,20,24,27,30,33,54-undecone]	–	–	–	B (a compound having 3 or more and less than 10 is denoted as B)	A (a compound having 10 or more and less than 20 is denoted as A)	0.17 nM	–	–
CCC[C@H]1C(=O)N[C@@H]([C@@H](C)CC)C(=O)N(C)CC(=O)N(C)[C@H]2C/C=C\CCN(C2=O)[C@@H](Cc2ccc(C)cc2)C(=O)N(C)CC(=O)N[C@@H](CCc2ccc(C(F)(F)F)c(OC)c2)C(=O)N2C[C@H](OCC)C[C@H]2C(=O)NC2(CC(C)(C)C2)C(=O)N(C)[C@@H]([C@@H](C)CC)C(=O)N(C)[C@H](C(=O)N(C)C)CC(=O)N1C [PP3006]	–	–	–	A (a compound having 10 or more and less than 20 is denoted as A)	A (a compound having 10 or more and less than 20 is denoted as A)	0.41 nM	–	–
CCC[C@H]1C(=O)N[C@@H]([C@@H](C)CC)C(=O)N(C2CC2)CC(=O)N(C)[C@H]2C/C=C\CCN(C2=O)[C@@H](Cc2ccc(C(F)(F)F)cc2)C(=O)N(C)CC(=O)N[C@@H](CCc2cc(F)c(C(F)(F)F)c(F)c2)C(=O)N2C[C@H](OCC)C[C@H]2C(=O)NC2(CC(C)(C)C2)C(=O)N(C)[C@@H](CC2CC2)C(=O)N(C)[C@H](C(=O)N(C)C)CC(=O)N1C [PP2813]	–	1.7 nM	–	–	–	–	A (a compound having 10 or more and less than 20 is denoted as A)	AA (a compound having 20 or more is denoted as AA)
CC[C@H](C)[C@@H]1NC(=O)[C@H](CC(C)C)N(C)C(=O)C[C@@H](C(=O)N2CCCC2)N(C)C(=O)[C@H](C2CCCC2)N(C)C(=O)C2(CCCC2)NC(=O)[C@@H]2CCCN2C(=O)[C@H](CCc2cc(F)c(C(F)(F)F)c(F)c2)NC(=O)CN(C)C(=O)[C@H](Cc2ccc(C(F)(F)F)cc2)N2CCCCC[C@@H](C2=O)N(C)C(=O)CN(C)C1=O [PP0509]	B (a compound having 3 or more and less than 10 is denoted as B)	2.4 nM	B (a compound having 3 or more and less than 10 is denoted as B)	–	–	–	–	–
